What all share (assay): Off-chip Mobility Shift Assay (MSA) kinase inhibition
Common to all, as to assay type: biochemical

The target in one assay is T1, BRAF(V600E) (Homo sapiens, UniProt P15056, V600E).
T1 construct: purchased Carna Biosciences
The procedure: (§1) Off-chip Mobility Shift Assay (MSA) by Cama Biosciences, Inc (Natick, Mass.) a used for measuring the kinase activity and inhibition. • 1) The 5 μL of x4 compound solution, 5 μL of x4 Substrate/ATP/Metal solution, and 10 μL of x2 kinase solution were prepared with assay buffer (20 mM HEPES, 0.01% Triton X100, 2 mM DTT, pH 7.5) and mixed and incubated in a well of polypropylene 384 well microplate for 1 or 5 hour(s)* at room temperature.

The target in a further assay is T2, PDGFRβ (Homo sapiens, UniProt P09619).
T2 construct: purchased Carna Biosciences
Conditions: for inhibition at 0.1 µM: inhibitor concentration 0.1 μM. The procedure: as §1

For a further assay, the target named is T3, ABL(T315I) (Homo sapiens, UniProt P00519, T315I).
T3 construct: purchased Carna Biosciences
Conditions: inhibitor concentration 0.1 μM. The protocol:
as §1

The next assay concerns the target T4, AXL (Homo sapiens, UniProt P30530).
T4 construct: purchased Carna Biosciences
T4 sequence (P30530 26-894): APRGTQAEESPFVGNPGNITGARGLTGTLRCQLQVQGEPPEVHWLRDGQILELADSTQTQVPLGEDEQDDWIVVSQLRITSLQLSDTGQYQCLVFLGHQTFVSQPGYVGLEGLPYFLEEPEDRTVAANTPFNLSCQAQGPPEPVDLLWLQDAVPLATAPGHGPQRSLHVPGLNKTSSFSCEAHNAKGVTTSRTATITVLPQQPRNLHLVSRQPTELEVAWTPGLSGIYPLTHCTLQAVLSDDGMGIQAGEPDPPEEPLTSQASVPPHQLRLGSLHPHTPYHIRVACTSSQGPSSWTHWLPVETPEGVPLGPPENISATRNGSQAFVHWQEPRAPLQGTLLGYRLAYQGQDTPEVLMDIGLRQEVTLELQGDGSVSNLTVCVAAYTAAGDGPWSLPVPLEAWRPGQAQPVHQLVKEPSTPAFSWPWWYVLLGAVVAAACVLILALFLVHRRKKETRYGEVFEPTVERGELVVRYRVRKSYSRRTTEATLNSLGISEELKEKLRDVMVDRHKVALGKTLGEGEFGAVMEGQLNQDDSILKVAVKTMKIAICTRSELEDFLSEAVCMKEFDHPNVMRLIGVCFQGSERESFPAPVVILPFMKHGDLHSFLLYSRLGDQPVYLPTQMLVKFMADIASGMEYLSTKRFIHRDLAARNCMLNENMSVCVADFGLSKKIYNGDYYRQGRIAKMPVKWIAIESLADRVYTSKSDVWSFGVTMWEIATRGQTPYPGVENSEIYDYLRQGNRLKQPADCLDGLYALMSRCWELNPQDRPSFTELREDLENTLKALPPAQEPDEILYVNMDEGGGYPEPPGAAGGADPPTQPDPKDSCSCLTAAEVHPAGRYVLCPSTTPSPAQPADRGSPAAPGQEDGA
Conditions: inhibitor concentration 0.1 μM. The procedure: as §1

For a further assay, the target named is T5, EGFR(L858R) (Homo sapiens, UniProt P00533, L858R).
T5 construct: purchased Carna Biosciences
Conditions: inhibitor concentration 0.1 μM. The procedure: as §1

In another assay the target is T6, FAK (Homo sapiens, UniProt Q05397).
T6 construct: purchased Carna Biosciences, Inc
The conditions noted are these: inhibitor concentration 0.1 μM. The procedure: as §1

The target in another assay is T7, FLT3 (Homo sapiens, UniProt P36888).
T7 construct: purchased Carna Biosciences
T7 sequence (P36888 27-993): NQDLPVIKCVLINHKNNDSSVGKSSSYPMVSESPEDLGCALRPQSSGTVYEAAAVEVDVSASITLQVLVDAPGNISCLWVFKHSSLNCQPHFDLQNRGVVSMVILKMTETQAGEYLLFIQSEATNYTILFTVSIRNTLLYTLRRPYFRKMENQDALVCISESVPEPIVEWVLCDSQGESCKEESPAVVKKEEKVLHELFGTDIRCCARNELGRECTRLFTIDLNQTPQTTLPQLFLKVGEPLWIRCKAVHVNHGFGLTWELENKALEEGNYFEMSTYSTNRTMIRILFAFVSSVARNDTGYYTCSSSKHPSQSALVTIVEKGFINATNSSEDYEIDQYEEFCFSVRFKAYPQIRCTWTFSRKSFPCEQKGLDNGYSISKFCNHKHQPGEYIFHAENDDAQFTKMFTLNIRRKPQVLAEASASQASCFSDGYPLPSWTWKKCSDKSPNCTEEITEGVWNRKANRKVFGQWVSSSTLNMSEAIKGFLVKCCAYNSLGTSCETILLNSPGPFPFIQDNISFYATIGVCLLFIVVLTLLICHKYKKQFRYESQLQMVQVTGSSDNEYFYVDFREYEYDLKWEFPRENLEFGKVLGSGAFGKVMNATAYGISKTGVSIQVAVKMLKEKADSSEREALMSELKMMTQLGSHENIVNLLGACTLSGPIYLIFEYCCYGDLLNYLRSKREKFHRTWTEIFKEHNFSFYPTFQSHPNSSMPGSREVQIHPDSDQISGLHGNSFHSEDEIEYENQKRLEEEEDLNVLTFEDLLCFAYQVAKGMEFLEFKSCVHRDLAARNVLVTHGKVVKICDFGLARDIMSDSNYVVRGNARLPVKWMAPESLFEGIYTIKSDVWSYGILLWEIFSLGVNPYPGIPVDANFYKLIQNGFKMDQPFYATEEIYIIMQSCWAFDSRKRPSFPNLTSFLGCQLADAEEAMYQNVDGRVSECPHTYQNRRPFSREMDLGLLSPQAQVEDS
The conditions noted are these: for inhibition at 0.1 µM: inhibitor concentration 0.1 μM. The procedure: as §1

In a further assay the target is T8, HER2 (Homo sapiens, UniProt P04626).
T8 construct: purchased Carna Biosciences
T8 sequence (P04626 23-1255): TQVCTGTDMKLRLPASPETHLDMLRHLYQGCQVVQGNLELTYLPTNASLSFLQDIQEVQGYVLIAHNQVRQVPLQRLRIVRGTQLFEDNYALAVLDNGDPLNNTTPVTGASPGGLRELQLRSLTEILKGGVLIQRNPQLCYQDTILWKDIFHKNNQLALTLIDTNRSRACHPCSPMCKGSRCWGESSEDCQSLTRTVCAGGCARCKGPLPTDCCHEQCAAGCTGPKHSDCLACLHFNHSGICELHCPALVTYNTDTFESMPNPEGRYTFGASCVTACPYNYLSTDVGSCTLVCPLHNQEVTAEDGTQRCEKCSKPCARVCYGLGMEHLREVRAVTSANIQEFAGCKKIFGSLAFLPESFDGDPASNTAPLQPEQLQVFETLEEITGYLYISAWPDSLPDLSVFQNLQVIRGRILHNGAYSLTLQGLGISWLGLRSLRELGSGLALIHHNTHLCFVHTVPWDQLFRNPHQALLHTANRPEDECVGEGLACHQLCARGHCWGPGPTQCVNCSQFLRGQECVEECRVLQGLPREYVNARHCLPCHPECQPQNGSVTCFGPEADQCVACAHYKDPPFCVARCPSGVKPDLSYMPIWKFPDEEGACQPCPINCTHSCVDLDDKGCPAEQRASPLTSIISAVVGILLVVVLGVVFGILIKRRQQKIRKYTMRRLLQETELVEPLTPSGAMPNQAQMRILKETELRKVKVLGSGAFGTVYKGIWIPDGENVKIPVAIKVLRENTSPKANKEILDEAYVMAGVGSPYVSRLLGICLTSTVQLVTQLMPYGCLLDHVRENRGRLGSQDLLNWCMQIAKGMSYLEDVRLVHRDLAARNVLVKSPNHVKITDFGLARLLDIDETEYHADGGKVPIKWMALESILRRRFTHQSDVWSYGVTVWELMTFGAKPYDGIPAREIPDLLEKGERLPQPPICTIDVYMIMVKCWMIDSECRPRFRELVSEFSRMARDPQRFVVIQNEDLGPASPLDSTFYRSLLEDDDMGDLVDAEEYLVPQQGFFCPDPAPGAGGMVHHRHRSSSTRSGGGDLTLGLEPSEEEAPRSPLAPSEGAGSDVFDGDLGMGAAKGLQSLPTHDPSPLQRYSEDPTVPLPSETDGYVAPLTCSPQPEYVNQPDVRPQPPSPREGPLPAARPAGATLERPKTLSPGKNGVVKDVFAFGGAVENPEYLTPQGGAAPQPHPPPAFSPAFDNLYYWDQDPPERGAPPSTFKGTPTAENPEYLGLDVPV
Conditions: for inhibition at 0.1 µM: inhibitor concentration 0.1 μM. The protocol:
as §1

A further assay has as its target T9, LYNa (Homo sapiens, UniProt P07948).
T9 construct: purchased Carna Biosciences
The conditions noted are these: for inhibition at 0.1 µM: inhibitor concentration 0.1 μM. The procedure:
as §1

The target of another assay is T10, MAP3K4 (Homo sapiens, UniProt Q9Y6R4).
T10 construct: purchased Carna Biosciences
T10 sequence (Q9Y6R4 whole entry): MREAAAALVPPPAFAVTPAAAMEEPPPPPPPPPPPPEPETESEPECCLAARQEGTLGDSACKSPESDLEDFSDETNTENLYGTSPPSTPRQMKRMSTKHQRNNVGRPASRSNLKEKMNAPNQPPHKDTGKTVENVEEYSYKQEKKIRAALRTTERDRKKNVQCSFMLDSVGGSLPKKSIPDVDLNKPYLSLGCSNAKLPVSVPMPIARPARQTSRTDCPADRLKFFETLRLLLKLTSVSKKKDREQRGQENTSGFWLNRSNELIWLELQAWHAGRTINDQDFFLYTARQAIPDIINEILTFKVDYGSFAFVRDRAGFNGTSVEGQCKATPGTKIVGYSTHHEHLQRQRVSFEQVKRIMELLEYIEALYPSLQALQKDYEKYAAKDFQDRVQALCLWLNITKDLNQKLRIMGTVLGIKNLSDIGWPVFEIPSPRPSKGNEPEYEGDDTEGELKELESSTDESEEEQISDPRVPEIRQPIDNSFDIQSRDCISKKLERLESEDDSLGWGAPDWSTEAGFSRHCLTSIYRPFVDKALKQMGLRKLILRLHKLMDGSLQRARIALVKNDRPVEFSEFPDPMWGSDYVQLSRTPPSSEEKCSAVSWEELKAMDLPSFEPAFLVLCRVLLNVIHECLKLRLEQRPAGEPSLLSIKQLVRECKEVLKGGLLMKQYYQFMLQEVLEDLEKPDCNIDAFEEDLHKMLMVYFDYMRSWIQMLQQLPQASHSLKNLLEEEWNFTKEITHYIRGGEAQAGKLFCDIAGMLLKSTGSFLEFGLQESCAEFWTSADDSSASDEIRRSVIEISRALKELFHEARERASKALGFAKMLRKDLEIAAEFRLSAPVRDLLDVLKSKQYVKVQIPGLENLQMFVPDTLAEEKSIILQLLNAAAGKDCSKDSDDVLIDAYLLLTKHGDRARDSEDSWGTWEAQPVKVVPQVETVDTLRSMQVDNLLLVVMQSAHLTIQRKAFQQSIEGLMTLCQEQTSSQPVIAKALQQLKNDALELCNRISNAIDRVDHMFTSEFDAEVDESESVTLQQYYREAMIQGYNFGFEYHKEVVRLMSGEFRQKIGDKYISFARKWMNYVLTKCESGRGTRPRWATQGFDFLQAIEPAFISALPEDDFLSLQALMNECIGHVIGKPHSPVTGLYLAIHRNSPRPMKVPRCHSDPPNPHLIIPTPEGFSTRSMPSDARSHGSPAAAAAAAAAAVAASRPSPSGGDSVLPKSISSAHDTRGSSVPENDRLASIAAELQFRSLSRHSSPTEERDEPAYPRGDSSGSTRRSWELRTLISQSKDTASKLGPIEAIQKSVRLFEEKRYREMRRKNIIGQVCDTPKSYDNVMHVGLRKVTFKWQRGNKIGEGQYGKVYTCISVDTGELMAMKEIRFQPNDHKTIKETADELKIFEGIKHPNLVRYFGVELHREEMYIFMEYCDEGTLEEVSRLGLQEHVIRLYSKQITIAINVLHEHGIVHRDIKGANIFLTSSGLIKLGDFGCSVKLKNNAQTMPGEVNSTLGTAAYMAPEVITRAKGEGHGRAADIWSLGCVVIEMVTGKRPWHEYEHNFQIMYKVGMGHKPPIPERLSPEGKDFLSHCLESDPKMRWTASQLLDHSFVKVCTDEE
Conditions: inhibitor concentration 0.1 μM. The procedure:
as §1

Another assay concerns the target T11, MNK1 (Homo sapiens, UniProt Q9BUB5).
T11 construct: purchased Carna Biosciences
Conditions: for inhibition at 0.1 µM: inhibitor concentration 0.1 μM. The protocol:
as §1

A further assay deals with T12, PIK3CA/PIK3R1 (Homo sapiens, UniProt P42336).
T12 construct: purchased Carna Biosciences
Conditions: for inhibition at 0.1 µM: inhibitor concentration 0.1 μM. The protocol: as §1

In another assay the target is T13, PKACα (Homo sapiens, UniProt P17612).
T13 construct: purchased Carna Biosciences, Inc
The conditions noted are these: inhibitor concentration 0.1 μM. The protocol: as §1

The target of the next assay is T14, RON (Homo sapiens, UniProt Q04912).
T14 construct: purchased Carna Biosciences
Conditions: inhibitor concentration 0.1 μM. The protocol:
as §1

For another assay, the target named is T15, ROS (Homo sapiens, UniProt P08922).
T15 construct: purchased Carna Biosciences
T15 sequence (P08922 28-2347): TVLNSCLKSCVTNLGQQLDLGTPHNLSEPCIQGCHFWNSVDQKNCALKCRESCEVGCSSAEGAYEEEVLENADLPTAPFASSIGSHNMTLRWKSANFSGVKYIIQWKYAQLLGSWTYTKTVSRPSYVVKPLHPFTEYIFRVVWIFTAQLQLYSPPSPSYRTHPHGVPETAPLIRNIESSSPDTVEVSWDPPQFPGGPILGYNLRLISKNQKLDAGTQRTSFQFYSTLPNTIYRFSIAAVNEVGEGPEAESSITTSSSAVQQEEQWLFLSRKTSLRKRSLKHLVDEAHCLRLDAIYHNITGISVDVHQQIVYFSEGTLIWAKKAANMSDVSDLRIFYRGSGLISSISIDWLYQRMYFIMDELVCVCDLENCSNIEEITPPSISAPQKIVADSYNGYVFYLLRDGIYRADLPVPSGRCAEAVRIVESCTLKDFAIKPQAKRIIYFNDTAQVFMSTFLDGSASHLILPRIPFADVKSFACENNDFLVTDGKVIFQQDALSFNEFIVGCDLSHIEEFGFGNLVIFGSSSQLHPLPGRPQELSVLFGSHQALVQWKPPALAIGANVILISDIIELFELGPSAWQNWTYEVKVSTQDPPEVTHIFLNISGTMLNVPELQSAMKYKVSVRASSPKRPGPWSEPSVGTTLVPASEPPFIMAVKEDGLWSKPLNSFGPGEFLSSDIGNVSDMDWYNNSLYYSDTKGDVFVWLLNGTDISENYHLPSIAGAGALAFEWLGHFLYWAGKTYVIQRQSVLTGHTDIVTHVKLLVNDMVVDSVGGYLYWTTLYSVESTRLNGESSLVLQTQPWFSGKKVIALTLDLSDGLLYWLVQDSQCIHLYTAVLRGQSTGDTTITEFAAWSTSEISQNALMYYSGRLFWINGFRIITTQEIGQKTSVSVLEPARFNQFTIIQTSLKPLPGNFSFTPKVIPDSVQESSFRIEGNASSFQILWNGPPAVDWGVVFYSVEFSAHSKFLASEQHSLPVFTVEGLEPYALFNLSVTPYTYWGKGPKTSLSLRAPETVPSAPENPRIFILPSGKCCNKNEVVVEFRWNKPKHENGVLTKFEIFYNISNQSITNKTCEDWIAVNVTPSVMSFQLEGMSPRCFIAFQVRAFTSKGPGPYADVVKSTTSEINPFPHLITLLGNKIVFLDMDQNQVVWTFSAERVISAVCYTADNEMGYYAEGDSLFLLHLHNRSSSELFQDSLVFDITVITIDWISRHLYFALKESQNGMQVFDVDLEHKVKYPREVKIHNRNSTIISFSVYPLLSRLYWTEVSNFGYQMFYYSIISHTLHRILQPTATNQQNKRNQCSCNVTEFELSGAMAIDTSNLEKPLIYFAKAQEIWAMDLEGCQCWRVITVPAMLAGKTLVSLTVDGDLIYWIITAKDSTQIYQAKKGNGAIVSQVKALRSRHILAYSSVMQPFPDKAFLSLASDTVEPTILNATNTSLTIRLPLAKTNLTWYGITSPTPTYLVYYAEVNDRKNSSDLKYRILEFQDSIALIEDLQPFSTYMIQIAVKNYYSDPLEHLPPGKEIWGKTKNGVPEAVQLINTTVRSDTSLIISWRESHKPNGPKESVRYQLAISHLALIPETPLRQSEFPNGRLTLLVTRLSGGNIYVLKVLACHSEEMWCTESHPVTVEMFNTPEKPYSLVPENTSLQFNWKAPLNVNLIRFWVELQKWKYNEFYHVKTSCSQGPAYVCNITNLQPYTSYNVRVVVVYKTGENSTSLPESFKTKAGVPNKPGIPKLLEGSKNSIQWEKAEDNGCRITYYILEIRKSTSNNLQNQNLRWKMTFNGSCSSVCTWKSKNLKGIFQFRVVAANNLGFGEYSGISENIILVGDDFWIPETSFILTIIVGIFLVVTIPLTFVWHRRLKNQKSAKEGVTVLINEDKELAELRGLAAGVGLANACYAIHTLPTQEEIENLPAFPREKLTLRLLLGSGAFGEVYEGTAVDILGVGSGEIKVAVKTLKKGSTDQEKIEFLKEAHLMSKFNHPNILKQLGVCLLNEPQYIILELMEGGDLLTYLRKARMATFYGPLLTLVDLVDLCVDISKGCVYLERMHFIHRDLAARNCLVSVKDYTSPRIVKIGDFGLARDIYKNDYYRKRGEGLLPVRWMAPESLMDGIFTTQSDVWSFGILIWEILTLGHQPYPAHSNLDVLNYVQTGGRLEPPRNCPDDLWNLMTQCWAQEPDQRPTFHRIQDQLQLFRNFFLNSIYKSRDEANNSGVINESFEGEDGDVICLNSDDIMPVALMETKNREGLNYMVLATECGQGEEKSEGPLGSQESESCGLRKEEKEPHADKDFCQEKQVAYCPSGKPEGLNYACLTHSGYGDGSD
The conditions noted are these: inhibitor concentration 0.1 μM. The procedure:
as §1

The mark [1] stands for this setting: inhibitor concentration 0.01 μM, 0.01 µM.
Setting [2] is: inhibitor concentration 0.01 μM.

With `C/C=C/S(=O)(=O)Nc1ccc(F)c(C(=O)c2c[nH]c3ncc(-c4ccc(Cl)cc4)cc23)c1F` [200-93b], the “BRAF(V600E) inhibition” value on BRAF(V600E) (setting [1]) is given as under 20%. Further, the PDGFRβ inhibition on PDGFRβ (setting [1]) is listed as under 20%.
Take `CC(=O)CS(=O)(=O)Nc1ccc(F)c(C(=O)c2c[nH]c3ncc(-c4ccc(Cl)cc4)cc23)c1F` [200-117]: the inhibition at 0.1 µM at ABL(T315I), at AXL, on EGFR(L858R), at FAK, at FLT3 and at HER2 was under 30% each time. The inhibition (as a rule, the change of the read-out against control, counted positive when it falls) at 0.1 µM was over 30% at LYNa; under 30% on MAP3K4; under 30% at MNK1; under 30% at PDGFRβ; under 30% on PIK3CA/PIK3R1; under 30% at PKACα. The inhibition at 0.1 µM on RON and on ROS was under 30% in each case.
With `O=C(c1c(F)ccc(NS(=O)(=O)CC(O)CO)c1F)c1c[nH]c2ncc(-c3ccc(Cl)cc3)cc12` (stereo not drawn) [200-73, N-[3-[5-(4-chlorophenyl)-lH-pyrrolo [2,3-b]pyridine-3-carbonyl]-2,4-difluorophenyl]-2,3-dihydroxypropane-l-sulfonamide], the inhibition at 0.1 µM on ABL(T315I), on AXL, on BRAF(V600E) (inhibitor concentration 0.1 μM), on EGFR(L858R), on FAK and at FLT3 was under 30% throughout. The inhibition at 0.1 µM at HER2, at LYNa, at MAP3K4, on MNK1, at PDGFRβ and at PIK3CA/PIK3R1 was under 30% throughout. Moreover, the inhibition at 0.1 µM at PKACα, on RON and at ROS was under 30% each time.
Turning to `CC(O)CS(=O)(=O)Nc1ccc(F)c(C(=O)c2c[nH]c3ncc(-c4ccc(Cl)cc4)cc23)c1F` (centres unmarked) [200-115], the inhibition at 0.1 µM at ABL(T315I), at AXL, on EGFR(L858R), at FAK, on FLT3 and on HER2 was under 30% in each case. Further, the inhibition at 0.1 µM at LYNa, on MAP3K4, on MNK1, on PDGFRβ, at PIK3CA/PIK3R1 and on PKACα was under 30% in each case. Besides, the inhibition at 0.1 µM on RON and at ROS was under 30% each time.
For `O=C(c1c(F)ccc(NS(=O)(=O)CCCO)c1F)c1c[nH]c2ncc(-c3ccc(Cl)cc3)cc12` [200-17, N-[3-[5-(4-chlorophenyl)-1H-pyrrolo[2,3-b]pyridine-3-carbonyl]-2,4-difluorophenyl]-3-hydroxypropane-1-sulfonamide], the inhibition at 1 µM at BRAF(V600E) (inhibitor concentration 1 μM) was over 50%; at FLT3 (inhibitor concentration 1 μM), over 50%; on HER2 (inhibitor concentration 1 μM), under 50%; on LYNa (inhibitor concentration 1 μM), over 50%; on MNK1 (inhibitor concentration 1 μM), over 50%; on PDGFRβ (inhibitor concentration 1 μM), over 50%. For the same molecule, the inhibition at 1 µM at PIK3CA/PIK3R1 (inhibitor concentration 1 μM) was over 50%. For the same molecule, the inhibition at 0.01 µM at LYNa (setting [2]) and at PDGFRβ (setting [2]) was under 30% each time. The inhibition at 0.1 µM on LYNa was over 50%; at PDGFRβ, under 50%.

For the origin of these results see patent US10106538B2, “Inhibitors of protein kinases” (PRINCETON DRUG DISCOVERY INC, priority 2015, dated 2018).
